From ChEMBL document CHEMBL4304764, “Identification of a RIP1 Kinase Inhibitor Clinical Candidate (GSK3145095) for the Treatment of Pancreatic Cancer” (ACS Med Chem Lett, 2019) come the findings set out here.

Each structure is given as a SMILES string.

The nature of series [1]: Chromatographic hydrophobicity index, log D of the compound at pH 7.4 by RP-HPLC analysis. It is filed as physicochemical. As to conditions: buffer.
Series [2] in a line: AUC (0 to infinity) in rat at 2 mg/kg, po. It is filed as ADME, organism-based. As to conditions: in vivo. The arrangement: dose 2 mg/kg, route oral, time infinity.
A short description of series [3]: Clearance in rat at 1 mg/kg, iv. The following applies: in vivo. It is filed as ADME, organism-based.
Series [4] in a line: Metabolic stability in human hepatocytes in presence of NADPH. It is filed as ADME, cell-based, Hepatocyte.
A short description of series [5]: AUC in rat at […], po. It is filed as ADME, organism-based. The following applies: in vivo.
A short description of series [6]: Volume of distribution at steady state in dog at 1.1 mg/kg, iv. It is filed as ADME, organism-based, Canis lupus familiaris. As to conditions: in vivo, read-out: Vdss.
Series [7] is described as follows: Clearance in dog at 1.1 mg/kg, iv relative to liver blood flow. It is filed as ADME, organism-based, Canis lupus familiaris. As to conditions: in vivo.
The nature of series [8]: Metabolic stability in rat hepatocytes in presence of NADPH. It is filed as ADME, cell-based, Hepatocyte.
Series [9] is described as follows: Volume of distribution at steady state in rat at 1 mg/kg, iv. It is filed as ADME, organism-based. The following applies: in vivo, read-out: Vdss.
Series [10] is described as follows: Cmax in rat at […], po. As to conditions: in vivo. It is filed as ADME, organism-based. Also on record: dose 2.1 mg/kg, route oral.
The nature of series [11]: Clearance in monkey at […], iv relative to liver blood flow. As to conditions: rhesus monkey, in vivo. It is filed as ADME, organism-based, Macaca mulatta.
Series [12] in a line: in vivo. The following applies: dog, po, 2 mg/kg.
Series [13] is described as follows: in vivo. The following applies: rat, po.
Series [14] can be described thus: Half life in rat at 1 mg/kg, iv. It is filed as ADME, organism-based. As to conditions: in vivo.
The nature of series [15]: AUC in monkey at […], po. The following applies: rhesus monkey, in vivo. It is filed as ADME, organism-based, Macaca mulatta.
A short description of series [16]: Clearance in rat at 1 mg/kg, iv relative to liver blood flow. It is filed as ADME, organism-based. As to conditions: in vivo.
Series [17] is described as follows: Cmax in dog at 2 mg/kg, po. It is filed as ADME, organism-based, Canis lupus familiaris. The arrangement: dose 2 mg/kg, route oral. The following applies: in vivo.
Series [18] in a line: Metabolic stability in monkey hepatocytes in presence of NADPH. It is filed as ADME, cell-based, Macaca mulatta, Hepatocyte. As to conditions: rhesus monkey.
A short description of series [19]: AUC in dog at 2 mg/kg, po. It is filed as ADME, organism-based, Canis lupus familiaris. As to conditions: in vivo.
The nature of series [20]: Clearance in dog at 1.1 mg/kg, iv. It is filed as ADME, organism-based, Canis lupus familiaris. As to conditions: in vivo.
Series [21] in a line: Half life in monkey at […], iv. It is filed as ADME, organism-based, Macaca mulatta. As to conditions: rhesus monkey, in vivo.

Usually logD stands for lipophilicity at a set pH, counting ionised and neutral species. For the compound `O=C(N[C@H]1CCc2ccccc2NC1=O)c1n[nH]c(Cc2ccccc2)n1`, the logD in series [1] is given as 3.1.
The term AUC(0-inf) denotes the area under the concentration-time curve extrapolated to infinity. `O=C(N[C@H]1COc2ccccc2NC1=O)c1n[nH]c(Cc2ccccc2)n1` registered an AUC(0-inf) in series [2] of 2500 ng·h/mL. Also, the logD in series [1] stood at 3.
Broadly, the clearance is a measure of how efficiently the substance is removed, as volume per time. What is called AUC is the area under the concentration-time curve, a measure of exposure. The Cmax is the highest concentration seen after dosing. Broadly, the Tmax is the time from dosing to the highest level. As usually defined, the half-life is how long it takes for the measured level to halve. Turning to `O=C(N[C@H]1CCc2cc(F)cc(F)c2NC1=O)c1n[nH]c(Cc2ccccc2)n1`, the clearance in series [3] was 27 mL/min/kg; in series [20], 9.8 mL/min/kg. The Stability entry in [4], in series [8] and in series [18] was “Stable” in each case. Further, the results for the AUC in series [5], in series [15] and in [19] were 1100 ng·h/mL, 4400 ng·h/mL and 2500 ng·h/mL, respectively. The Vd in [6] was found to be 1.1 L/kg; in series [9], 1.8 L/kg. Besides, the values for the CL in series [7], in series [11] and in series [16] were 18%, 15% and 35%, respectively. Besides, the Cmax came out at 320 ng/mL in series [10] and 910 ng/mL in series [17]. Also, the Tmax in “in vivo [12]” is 45 min; in “in vivo [13]” it was 49.8 min. Further, the half-life in series [14] is 132 min. The compound further came in with an area under the curve AUC(0-inf) in series [2] of 1100 ng·h/mL. Also, the logD in series [1] is given as 3.4. The t1/2 in series [21] was 252 min.
Take `CN1C(=O)[C@@H](NC(=O)c2n[nH]c(Cc3ccccc3)n2)CCc2ccccc21`: the AUC(0-inf) in series [2] is 310 ng·h/mL. The logD in series [1] was found to be 3.8.
Compound `CN1C(=O)[C@@H](NC(=O)c2n[nH]c(Cc3ccccc3)n2)CCc2cc(F)cc(F)c21` showed an AUC(0-inf) in series [2] of 160 ng·h/mL. In series [1], this compound displayed a logD of 4.3.
On to `O=C(N[C@H]1COc2ccccc2NC1=O)c1cc(Cc2ccccc2)on1`, for which the logD in [1] was 5.1.
